From US5114934A, “Tricyclic pyridone derivatives” (Hoffman-La Roche, Inc., priority 1985, dated 1992)

Assays:
[1] = system: spasmodic seizures caused by pentetrazole; test: antipentetrazole test (mice, oral); format: in vivo; conditions: Mus musculus, 0.5 h, 30 minutes before 120 mg/kg pentetrazole i.p., dosage protecting 50% of animals, Probit method
Procedure: As mentioned earlier, the compounds of formula I have valuable pharmacological properties. In particular they display pronounced muscle relaxant, sedative-hypnotic, anticonvulsive and/or anxiolytic properties and have only a low toxicity.
(§1) In this animal experiment the compound under investigation is administered orally to mice and 30 minutes later there are administered intraperitoneally 120 mg/kg of pentetrazole, which causes emprosthotonus and tonic stretchings of the fore and/or hind limbs in unprotected animals 1-4 minutes after the injection. 10 experimental animals are used per dosage of test substance. After counting the protected experimental animals the ED50 is determined according to the Probit method. The ED50 is that dosage which protects 50% of the experimental animals from the spasmodic seizures caused by pentetrazole. The results which have been obtained with representative members of the class of compound defined by formula I in the experiment described previously are compiled in the following Table. Moreover, the Table contains data concerning the acute toxicity (LD50) of some of these compounds in mg/kg in the case of single oral administration to mice.

[2] = acute toxicity (LD50), single oral administration to mice; conditions: mouse, in vivo
Procedure: as §1

SMILES | ED50 [1] [mg/kg] | LD50 [2] [mg/kg]
COC1CN(C(=O)c2cc(-c3ccccc3)c(=O)n3ncc4ccccc4c23)C1 [Compound A, 3-methoxy-1-[(4-oxo-3-phenyl-4H-pyrido-[2,1-a]phthalazin-1-yl)carbonyl]azetidine] | 1.1 | 1500
CCN(CC)C(=O)c1cc(-c2ccccc2)c(=O)n2ncc3ccc(Cl)cc3c12 [Compound H, N,N-Diethyl-10-chloro-4-oxo-3-phenyl-4H-pyrido[2,1-a]phthalazine-1-carboxamide] | 0.66 | > 4000
COC1CN(C(=O)c2cc(-c3ccccc3)c(=O)n3ncc4ccsc4c23)C1 [Compound M, 3-Methoxy-1-[(7-oxo-8-phenyl-7H-pyrido-[1,2-b]thieno[2,3-d]pyridazin-10-yl)carbonyl]-azetidine] | 0.83 | 5000
COC1CN(C(=O)c2cc(-c3ccccc3)c(=O)n3ncc4ccc(Cl)cc4c23)C1 [Compound F, 1-[(10-Chloro-4-oxo-3-phenyl-4H-pyrido[2,1-a]-phthalazin-1-yl)carbonyl]-3-methoxyazetidine] | 0.79 | 5000
CN(C)C(=O)c1cc(-c2ccccc2)c(=O)n2ncc3ccc(Cl)cc3c12 [Compound G, N,N-Dimethyl-10-chloro-4-oxo-3-phenyl-4H-pyrido[2,1-a]phthalazine-1-carboxamide] | 0.08 | 5000
